Common to all, as to type: functional
Test [1] in a line: Cytotoxicity against mouse TLT cells assessed as cytoplasmic LDH release at 50 ug/ml after 24 hrs in presence of 2 mM vitamin C. (LDH leaks from cells whose membrane has failed.)
Test [2] is described as follows: Induction of apoptosis in mouse TLT cells assessed as effect on caspase 3 activity at 50 ug/ml after 24 hrs by fluorometric assay.
The nature of test [3]: Induction of apoptosis in mouse TLT cells assessed as increase in caspase 3 activity at 50 ug/ml after 24 hrs by fluorometric assay relative to basal level.
Test [4] is described as follows: Induction of apoptosis in mouse TLT cells assessed as effect on caspase 3 activity at 100 ug/ml after 24 hrs by fluorometric assay.
A short description of test [5]: Induction of apoptosis in mouse TLT cells assessed as effect on caspase 3 activity at 50 ug/ml after 24 hrs by fluorometric assay in presence of 2 mM vitamin C.
Test [6] can be described thus: Cytotoxicity against mouse TLT cells assessed as decrease in intracellular reduced glutathione level at 1 to 50 ug/ml after 24 hrs by ortho-phthalaldehyde method relative to control. Also on record: scale not given: the % may be the effect or the level left.
A short description of test [7]: Induction of apoptosis in mouse TLT cells assessed as increase in caspase 3 activity at 50 ug/ml after 24 hrs by fluorometric assay relative to basal level in presence of 2 mM vitamin C.
The nature of test [8]: Cytotoxicity against mouse TLT cells assessed as cytoplasmic LDH release at 50 ug/ml after 24 hrs.
Test [9] in a line: Cytotoxicity against mouse TLT cells assessed as decrease in intracellular ATP level at 1 to 50 ug/ml after 24 hrs by bioluminescence assay relative to control in presence of 2 mM vitamin C. Also on record: scale not given: the % may be the effect or the level left.
Test [10] is described as follows: Cytotoxicity against mouse TLT cells assessed as decrease in intracellular reduced glutathione level at 1 to 50 ug/ml after 24 hrs by ortho-phthalaldehyde method relative to control in presence of 2 mM vitamin C. Also on record: scale not given: the % may be the effect or the level left.
Test [11] is described as follows: Cytotoxicity against mouse TLT cells assessed as decrease in intracellular ATP level at 1 to 50 ug/ml after 24 hrs by bioluminescence assay relative to control. Also on record: scale not given: the % may be the effect or the level left.
Test [12] in a line: Induction of apoptosis in mouse TLT cells assessed as effect on caspase 3 activity at 1 ug/ml after 24 hrs by fluorometric assay in presence of 2 mM vitamin C.
A short description of test [13]: Induction of apoptosis in mouse TLT cells assessed as effect on caspase 3 activity at 1 ug/ml after 24 hrs by fluorometric assay.
Test [14] can be described thus: Induction of apoptosis in mouse TLT cells assessed as effect on caspase 3 activity at 100 ug/ml after 24 hrs by fluorometric assay in presence of 2 mM vitamin C.
Test [15] in a line: Cytotoxicity against mouse TLT cells assessed as cytoplasmic LDH release at 1 ug/ml after 24 hrs.
Test [16] can be described thus: Cytotoxicity against mouse TLT cells assessed as decrease in intracellular reduced glutathione level at 50 ug/ml after 24 hrs by ortho-phthalaldehyde method relative to control in presence of 2 mM vitamin C. Also on record: scale not given: the % may be the effect or the level left.
The nature of test [17]: Cytotoxicity against mouse TLT cells assessed as decrease in intracellular ATP level at 50 ug/ml after 24 hrs by bioluminescence assay relative to control in presence of 2 mM vitamin C. On the set-up: scale not given: the % may be the effect or the level left.

SMILES strings stand for the structures.

With `CC1(C)CCCC2(C)c3coc(C4=CC(=O)C=CC4=O)c3CCC12` (centres undefined), the Activity in test [1] amounted to 28%; in test [2], 37.2 mU; in test [3] it was 2.5; in test [4], 51.1 mU; in [5] it was 25.6 mU; in test [6], 60%. In addition, the Activity is reported as 3.5 in [7]; 28% in test [8]; 40% in test [9]; 60% in test [10]; 40% in test [11]; 15.1 mU in test [12]. For the same compound, the Activity in test [13] is 21.3 mU; in test [14] it was 57.8 mU.

Take `CC1(C)CCCC2(C)c3coc(C4=C([N+](=O)[O-])C(=O)C=CC4=O)c3CCC12` (centres undefined): the Activity in [1] came out at 60%; in [2], 27.4 mU; in test [4] it was 22.5 mU; in test [15], 28%; in test [5], 10.7 mU; in [16], 25%. Moreover, the Activity was 12.8 mU in [12], 31.9 mU in test [13], 1 mU in [14] and 50% in test [17].

These data come from ChEMBL document CHEMBL1156705, “Part 1: Effect of vitamin C on the biological activity of two euryfurylbenzoquinones on TLT, a murine hepatoma cell line” (2008).
